Consider 9 compounds from US7709482B2, “Polycyclic heteroaryl substituted triazoles useful as Axl inhibitors” (Rigel Pharmaceuticals, Inc., priority 2006, dated 2010).

The target of this assay is T1, Axl (Homo sapiens, UniProt P30530).
T1 construct: endogenous in cells; host or cells: HeLa cells
T1 sequence (P30530 26-894): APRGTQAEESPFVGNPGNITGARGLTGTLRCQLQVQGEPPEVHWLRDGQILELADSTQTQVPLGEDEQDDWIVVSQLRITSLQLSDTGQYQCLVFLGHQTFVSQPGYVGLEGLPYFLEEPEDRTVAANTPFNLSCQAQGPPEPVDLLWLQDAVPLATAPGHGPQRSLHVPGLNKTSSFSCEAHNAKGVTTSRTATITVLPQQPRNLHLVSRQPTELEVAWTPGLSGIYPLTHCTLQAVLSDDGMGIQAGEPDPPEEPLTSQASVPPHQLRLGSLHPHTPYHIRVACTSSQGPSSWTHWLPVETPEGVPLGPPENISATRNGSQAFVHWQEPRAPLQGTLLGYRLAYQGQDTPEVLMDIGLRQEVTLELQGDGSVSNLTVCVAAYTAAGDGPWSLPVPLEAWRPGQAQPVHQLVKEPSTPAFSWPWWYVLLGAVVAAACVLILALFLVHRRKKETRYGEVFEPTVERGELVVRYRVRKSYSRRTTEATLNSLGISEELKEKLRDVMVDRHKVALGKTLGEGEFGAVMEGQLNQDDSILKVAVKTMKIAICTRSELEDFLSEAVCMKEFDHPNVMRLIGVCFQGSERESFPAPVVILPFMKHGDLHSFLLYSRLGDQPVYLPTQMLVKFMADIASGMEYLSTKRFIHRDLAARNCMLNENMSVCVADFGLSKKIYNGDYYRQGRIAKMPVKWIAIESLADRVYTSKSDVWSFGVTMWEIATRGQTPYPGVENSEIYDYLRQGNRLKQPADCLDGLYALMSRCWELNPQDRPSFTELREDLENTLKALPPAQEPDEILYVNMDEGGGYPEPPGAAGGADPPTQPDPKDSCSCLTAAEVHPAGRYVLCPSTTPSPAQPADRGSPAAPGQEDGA
Description: Phospho-Akt In-Cell Western Assay (inhibition of Axl activity after Axl-antibody cross-linking). The format is cell-based. As to conditions: read-out: IC50. The essentials:
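HeLa cells on poly-L-lysine, starved 24 h in 0.5% FCS DMEM with Axl/Fc 500 ng/mL, pre-treated with compound 1 h at 37 °C, then stimulated 5 min by anti-Axl/anti-mouse antibody cross-linking. Fixed cells probed for phospho-Akt with HRP secondary and chemiluminescent detection.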

[1] abbreviates: Hela cells, phospho-Akt chemiluminescence normalized to relative cell number, compounds of formula (Ib), Table 2.
The mark [2] stands for this setting: Hela cells, phospho-Akt chemiluminescence normalized to relative cell number, compounds of formula (Ia), Table 1.
[3] abbreviates: inhibition of Axl activity, Table 1, compounds of formula (Ia).

Like-named read-outs stand apart in the source and are kept apart here.

As to `Nc1nc(Nc2ccc(N3CCC(N4CCOCC4)CC3)c(F)c2)n(-c2cc3c(nn2)-c2ccccc2CCC3)n1` [Compound 158, 1-(6,7-dihydro-5H-benzo[6,7]cyclohepta[1,2-c]pyridazin-3-yl)-N^5-(3-fluoro-4-(4-(morpholin-4-yl)piperidin-1-yl)phenyl)-1H-1,2,4-triazole-3,5-diamine], the IC50 (usually the point on the concentration scale where inhibition reaches its midpoint) under setting [1] is more than 20000 nM.

Turning to `Nc1nc(Nc2ccc(N3CCCC(N4CCCC4)C3)c(F)c2)nn1-c1cc2c(nn1)-c1ccccc1CCC2` (stereo not drawn) [Compound 68, 1-(6,7-dihydro-5H-benzo[6,7]cyclohepta[1,2-c]pyridazin-3-yl)-N^3-(3-fluoro-4-(3-pyrrolidin-1-yl-piperidin-1-yl)phenyl)-1H-1,2,4-triazole-3,5-diamine], the IC50 under setting [2] is less than 1000 nM.

For `N#Cc1cc(Nc2nc(N)n(-c3cc4c(nn3)-c3ccccc3CCC4)n2)ccc1N1CCC(N2CCCC2)CC1` [Compound 18, 1-(6,7-dihydro-5H-benzo[6,7]cyclohepta[1,2-c]pyridazin-3-yl)-N^3-(4-(4-(pyrrolidin-1-yl)piperidin-1-yl)-3-cyanophenyl)-1H-1,2,4-triazole-3,5-diamine], the IC50 under setting [2] was less than 1000 nM.

For `Nc1nc(Nc2ccc3c(c2)CCC(N2CC[C@H](F)C2)CC3)nn1-c1cc2c(nn1)-c1ccccc1CCC2` (stereo partly drawn) [Compound 217, 1-(6,7-dihydro-5H-benzo[6,7]cyclohepta[1,2-c]pyridazin-3-yl)-N^3-(7-(3-(S)-fluoropyrrolidin-1-yl)-6,7,8,9-tetrahydro-5H-benzo[7]annulene-2-yl)-1H-1,2,4-triazole-3,5-diamine], under setting [3], the IC50 is less than 1000 nM.

For the compound `Nc1nc(Nc2ccc(N3CC(N4CCCC4)C3)c(F)c2)n(-c2cc3c(nn2)-c2ccccc2CCC3)n1` [Compound 170, 1-(6,7-dihydro-5H-benzo[6,7]cyclohepta[1,2-c]pyridazin-3-yl)-N^5-(3-fluoro-4-(3-pyrrolidin-1-ylazetidinyl)phenyl)-1H-1,2,4-triazole-3,5-diamine], the IC50 under setting [1] lay in the range of 1000 to 10000 nM.

With `CN1CCN(C2CCN(c3ccc(Nc4nc(N)n(-c5cc6c(nn5)-c5ccccc5CCC6)n4)cc3F)CC2)CC1` [Compound 179, 1-(6,7-dihydro-5H-benzo[6,7]cyclohepta[1,2-c]pyridazin-3-yl)-N^3-(3-fluoro-4-(4-(4-methylpiperazin-1-yl)piperidin-1-yl)phenyl)-1H-1,2,4-triazole-3,5-diamine], the IC50 under setting [3] was less than 1000 nM.

Consider `CC1CCN(C2CCN(c3ccc(Nc4nc(N)n(-c5cc6c(nn5)-c5ccccc5CCC6)n4)cc3F)CC2)CC1` [Compound 59, 1-(6,7-dihydro-5H-benzo[6,7]cyclohepta[1,2-c]pyridazin-3-yl)-N^3-(3-fluoro-4-(4-(4-methylpiperidin-1-yl)piperidin-1-yl)phenyl)-1H-1,2,4-triazole-3,5-diamine], for which the IC50 under setting [2] is less than 1000 nM.

Consider `Nc1nc(Nc2ccc(N3CCN(C4CC5CCC4C5)CC3)cc2)nn1-c1ncnc2c1CCCc1ccccc1-2` (stereo not drawn) [Compound 38, 1-(6,7-dihydro-5H-benzo[6,7]cyclohepta[1,2-d]pyrimidin-4-yl)-N3-(4-(4-(bicyclo[2.2.1]heptan-2-yl)piperazin-1-yl)phenyl)-1H-1,2,4-triazole-3,5-diamine], for which the IC50 under setting [2] was less than 1000 nM.

`CN1CC2CN(c3ccc(Nc4nc(N)n(-c5cc6c(nn5)-c5ccccc5CCC6)n4)cc3F)CC2C1` (stereo not drawn) [Compound 66, 1-(6,7-dihydro-5H-benzo[6,7]cyclohepta[1,2-c]pyridazin-3-yl)-N^3-(3-fluoro-4-(5-methyloctahydro-pyrrolo[3,4-c]pyrrolyl)phenyl)-1H-1,2,4-triazole-3,5-diamine]: under setting [2], the IC50 is less than 1000 nM.
